# Assay results: US20220241249A1, “PHARMACEUTICAL COMPOSITION AND KIT CONTAINING NOVEL PENAM DERIVATIVE OR SALT THEREOF AND ONE OR MORE COMPOUNDS SELECTED FROM beta-LACTAMASE INHIBITORY COMPOUND AND ANTIBACTERIAL COMPOUND OR SALTS THEREOF” (priority 2019, published 2022)
# Columns and labels:
# [1] = tested on: Escherichia coli TK-1747 strain producing CTX-M-15 (strain A); assay: MIC of test compound alone or with β-lactamase inhibitor at 4 μg/mL; assay type: cell-based; conditions: Escherichia coli
# Method: (§1) By using a broth microdilution method, the combinational effect of a test compound and a β-lactamase inhibitor was evaluated.
# (§2) The evaluation test for antibacterial activity was performed in the same manner as in Test Example 1.
# Escherichia coli TK-1747 strain producing CTX-M-15 (hereinafter, called strain A),
# [2] = tested on: multidrug-resistant Pseudomonas aeruginosa strain (S-2838 strain); assay: Test for protection against systemic infection in mouse with multidrug-resistant Pseudomonas aeruginosa; assay type: in vivo; conditions: sc, 72 h, read-out: survival rate 3 days after the inoculation with bacteria
# Method: As mice, ICR male SPF mice (4 weeks old: 10 mice per group) were used. Clinically isolated multidrug-resistant Pseudomonas aeruginosa strain (S-2838 strain) cultured overnight on a Mueller-Hinton agar plate at 37° C. was cultured on a cation-adjusted Mueller Hinton medium for 5 hours, and then diluted 20-fold with a 10% mucin/phosphate buffer, thereby preparing an inoculum. An infection was induced by intraperitoneally inoculating the mice with the inoculum at 0.5 mL (about 10^6 CFU/mouse). Each test compound was dissolved in physiological saline, and 1 hour after the infection, the compound was subcutaneously administered once to the mice at 40 mg/kg. The control group was administered with the same amount of physiological saline used as a vehicle. The number of surviving mice was recorded 3 days after the infection.
# A test for protection against systemic infection in a mouse with multidrug-resistant Pseudomonas aeruginosa was performed in the same manner as in Test Example 2.
# [3] = tested on: Klebsiella pneumoniae Y-1020 strain producing KPC-3 and SHV-12 (strain B); assay: MIC of test compound alone or with β-lactamase inhibitor at 4 μg/mL; assay type: cell-based; conditions: for MIC: Klebsiella pneumoniae, Strain B
# Method: as §1, §2
# [4] = tested on: Escherichia coli TK-3113 strain producing IMP-8 (strain D); assay: as above; assay type: cell-based; conditions: Escherichia coli
# Summary of the method: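 Broth microdilution MIC of the test compound, run alone and with a β-lactamase inhibitor fixed at 4 μg/mL. Strains were IMP-8-producing E. coli TK-3113 and other β-lactamase producers, including K. pneumoniae Y-1069 carrying OXA-48 and CTX-M-15.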
# [5] = tested on: Klebsiella pneumoniae ATCC13883 strain (Klebsiella pneumoniae A); assay: Combinational effect of test compound and antibacterial compound, checkerboard FIC index; assay type: cell-based
# Method: (§3) By using a broth microdilution method, the combinational effect of antibacterial activity of a test compound and an antibacterial compound was evaluated.
# (§4) As bacterial strains, an Escherichia coli ATCC25922 strain (hereinafter, called Escherichia coli A), a Klebsiella pneumoniae ATCC13883 strain (hereinafter, called Klebsiella pneumoniae A), and a Pseudomonas aeruginosa ATCC27853 strain (hereinafter, called Pseudomonas aeruginosa A) were used.
# (§5) The minimum inhibitory concentration (hereinafter, called MIC) was measured according to the Clinical and Laboratory Standards Institute (CLSI) standard method by using the following broth microdilution method.
# (§6) The bacterial cells that had been cultured overnight on a Mueller Hinton agar medium were scraped off, suspended at a density equivalent to 0.5 McFarland standard. The obtained suspension was diluted at 10 fold, thereby obtaining an inoculum. Cation-adjusted Mueller Hinton media containing only a test compound, containing only an antibacterial compound, or containing a test compound and an antibacterial compound were inoculated with 0.005 mL of the inoculum, and the cells were cultured at 35° C. for 18 to 20 hours. The minimum drug concentration at which the growth of bacteria was not visually observed was defined as MIC (μg/mL).
# (§7) The FIC Index is the minimum value calculated by the following formula.
# (§8) FIC Index=(MIC value obtained in a case where test compound is used in combination/MIC value obtained in a case where test compound is used alone)+(MIC value obtained in a case where antibacterial compound is used in combination/MIC value obtained in a case where antibacterial compound is used alone)
# (§9) In a case where the FIC Index was 0.5 or less, it was decided that the use of two drugs in combination brings about a synergistic effect.
# (§10) In a case where the FIC Index was more than 0.5 and 1 or less, it was decided that the use of two drugs in combination brings about an additive effect. (Diagnostic Microbiology and Infectious Disease, 2004, Vol. 49, p. 197)
# [6] = tested on: Pseudomonas aeruginosa ATCC27853 strain (Pseudomonas aeruginosa A); assay: as above; assay type: cell-based; conditions: for FIC index: Pseudomonas aeruginosa A, checkerboard
# Method: as §3, §4, §5, §6, §7, §8, §9, §10
# [7] = tested on: Escherichia coli TK-1765 strain producing CMY-2 (strain E); assay: MIC of test compound alone or with β-lactamase inhibitor at 4 μg/mL; assay type: cell-based; conditions: Escherichia coli
# Method: as §1, §2
# Escherichia coli TK-1765 strain producing CMY-2 (hereinafter, called strain E)
# [8] = tested on: Klebsiella pneumoniae Y-1133 strain producing NDM-1, OXA-48, and CTX-M-15 (strain C); assay: as above; assay type: cell-based; conditions: Klebsiella pneumoniae
# Method: as §1, §2
# Klebsiella pneumoniae Y-1133 strain producing NDM-1, OXA-48, and CTX-M-15 (hereinafter, called strain C),
# An antibacterial activity evaluation test was performed in the same manner as in Test Example 6.
# As the bacterial strain, the strains B, C, and D producing β-lactamase and a Klebsiella pneumoniae Y-1069 strain (hereinafter, called strain F) producing OXA-48 and CTX-M-15 were used.
# [9] = test compound alone (β-lactamase inhibitor N/A)
smiles,measurement,setting,value
"CC(C)(O/N=C(\C(=O)NC1C(=O)N2C[C@@](C(=O)O)(N3CCN(NC(=O)C(=O)c4ccc(O)c(O)c4Cl)C(=O)C3=O)S[C@H]12)c1csc(N)n1)C(=O)O (stereo partly drawn) [Example 126, (3R,5R,6R)-6-((Z)-2-(2-aminothiazol-4-yl)-2-(((2-carboxypropan-2-yl)oxy)imino)aceta-mido)-3-(4-(2-(2-chloro-3,4-dihydroxy-phenyl)-2-oxoaceta-mido)-2,3-dioxopipera-zin-1-yl)-7-oxo-4-thia-1-azabicyclo[3.2.0]-heptane-3-carboxylic acid]",MIC,[1]; AVI added at 4 μg/mL,0.03 µg/mL
same,MIC,[1]; CVA added at 4 μg/mL,0.03 µg/mL
same,MIC,[1]; NAC added at 4 μg/mL,0.03 µg/mL
same,MIC,[1]; SBT added at 4 μg/mL,0.06 µg/mL
same,MIC,[1]; TAZ added at 4 μg/mL,0.06 µg/mL
same,MIC,[1]; ZID added at 4 μg/mL,< 0.015 µg/mL
same,MIC,[1]; [9],0.12 µg/mL
same,responders at 40 mg/kg,[2],≥ 90%
same,MIC,[3]; AVI added at 4 μg/mL,1 µg/mL
same,MIC,[3]; NAC added at 4 μg/mL,0.12 µg/mL
same,MIC,[3]; ZID added at 4 μg/mL,0.03 µg/mL
same,MIC,[3]; [9],4 µg/mL
same,antibacterial activity in combination with a β-lactamase inhibitor versus without,"[3]; for all the bacterial strains (strains A to E), summary of Tables 43 to 47",higher antibacterial activity
same,MIC,[4]; NAC added at 4 μg/mL,0.03 µg/mL
same,MIC,[4]; VAB added at 4 μg/mL,2 µg/mL
same,MIC,[4]; ZID added at 4 μg/mL,0.03 µg/mL
same,MIC,[4]; [9],4 µg/mL
same,FIC index,[5]; in combination with AMK,0.75
same,FIC index,[5]; in combination with CAZ,0.625
same,FIC index,[5]; in combination with IPM,0.375
same,FIC index,[5]; in combination with LVFX,0.75
same,FIC index,[5]; in combination with MPC,0.188
same,FIC index,[5]; in combination with PIPC,<0.5
same,FIC index,[5]; in combination with PL-B,0.625
same,FIC index,[5]; in combination with RFP,0.563
same,FIC index,[5]; in combination with VCM,<0.625
same,FIC index,[6]; in combination with AMK,0.5
same,FIC index,[6]; in combination with CAZ,0.563
same,FIC index,[6]; in combination with IPM,0.188
same,FIC index,[6]; in combination with LVFX,0.188
same,FIC index,[6]; in combination with PIPC,0.75
same,FIC index,[6]; in combination with PL-B,0.188
same,FIC index,[6]; in combination with RFP,0.375
same,FIC index,[6]; in combination with TC,0.25
same,FIC index,[6]; in combination with VCM,0.266
same,combinational effect with other antibacterial compounds,"[6]; main strains of Gram-negative bacteria, summary of Tables 40 to 42",additive or synergistic effect
same,MIC,[7]; [9],2 µg/mL
same,MIC,[7]; with AVI at 4 μg/mL,0.25 µg/mL
same,MIC,[7]; with TAZ at 4 μg/mL,1 µg/mL
same,MIC,[7]; with VAB at 4 μg/mL,0.5 µg/mL
same,MIC,[8]; AVI added at 4 μg/mL,0.5 µg/mL
same,MIC,[8]; NAC added at 4 μg/mL,0.03 µg/mL
same,MIC,[8]; ZID added at 4 μg/mL,< 0.015 µg/mL
same,MIC,[8]; [9],1 µg/mL
